“Also recorded” adds a separate entry of the source. Where two headings read alike, the source gives them in different places.
Columns and labels:
IFNG = tested on: IFNG; parameters: species or system human
TNFSF10 = tested on: TNFSF10; parameters: species or system human
CXCL1 = tested on: CXCL1; parameters: species or system human
CCL11 = experiment: Drugs that upregulate or downregulate iAge marker (Table 9); parameters: species or system human; conditions: GENE CCL11; beneficial (lowers) or detrimental (raises) to iAge
MIG = tested on: MIG; parameters: species or system human
aromatase = aromatase (Homo sapiens, UniProt P11511); conditions: in vivo; cited from earlier work
Sequence of aromatase (P11511 whole entry): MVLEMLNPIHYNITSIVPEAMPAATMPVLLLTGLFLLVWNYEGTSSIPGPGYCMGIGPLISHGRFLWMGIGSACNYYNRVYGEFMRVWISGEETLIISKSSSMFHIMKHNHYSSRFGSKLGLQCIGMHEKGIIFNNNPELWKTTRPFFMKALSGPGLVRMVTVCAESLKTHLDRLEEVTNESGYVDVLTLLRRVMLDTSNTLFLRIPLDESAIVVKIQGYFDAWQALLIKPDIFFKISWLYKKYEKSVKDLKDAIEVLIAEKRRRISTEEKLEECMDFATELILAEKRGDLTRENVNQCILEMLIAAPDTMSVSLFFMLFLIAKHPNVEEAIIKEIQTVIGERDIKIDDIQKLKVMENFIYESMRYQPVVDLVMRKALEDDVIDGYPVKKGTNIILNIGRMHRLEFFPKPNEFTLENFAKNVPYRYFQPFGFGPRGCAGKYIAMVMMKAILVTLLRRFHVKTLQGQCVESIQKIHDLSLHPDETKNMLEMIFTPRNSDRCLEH

Mouse thoracic aortas = experiment: Acetylcholine relaxation of mouse thoracic aortic rings on wire myograph after MIG; conditions: increasing concentrations of recombinant mouse MIG, precontracted with U46619
Method: Mouse thoracic aortas were carefully dissected, and vessels were cut into small rings and mounted on an isometric wire myograph chambers (Danish Myo Technology) and subjected to a normalization protocol. Following normalization, the vessels were incubated with either PBS or different concentrations of recombinant mouse MIG (R&D systems, catalog number 492-MM). A concentration-dependent contraction curve was created by accumulative application of the prostaglandin agonist U46619. Subsequently, concentration-dependent relaxation curves of Acetylcholine were conducted on these vessels and percent relaxation calculated for each dose.

[1] = GENE IFNG, beneficial (lowers) or detrimental (raises) to iAge
[2] = GENE TNFSF10, beneficial (lowers) or detrimental (raises) to iAge
[3] = GENE CXCL1, beneficial (lowers) or detrimental (raises) to iAge
[4] = GENE CXCL9 (MIG), beneficial (lowers) or detrimental (raises) to iAge

Sequence of TNFSF10 (P50591 whole entry): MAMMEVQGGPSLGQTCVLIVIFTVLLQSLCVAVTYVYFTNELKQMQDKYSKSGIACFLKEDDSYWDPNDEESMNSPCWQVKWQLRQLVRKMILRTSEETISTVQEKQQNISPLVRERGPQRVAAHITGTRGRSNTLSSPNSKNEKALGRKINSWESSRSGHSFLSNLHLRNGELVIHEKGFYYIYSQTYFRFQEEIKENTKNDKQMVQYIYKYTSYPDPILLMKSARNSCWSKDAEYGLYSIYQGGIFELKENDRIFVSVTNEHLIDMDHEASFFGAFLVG

With `NC(=O)c1ncn([C@@H]2O[C@H](CO)[C@@H](O)[C@H]2O)n1` [Ribavirin, reference compound] the EFFECT (IFNG; [1]) was “Detrimental”.

For `COc1cccc2c1C(=O)c1c(O)c3c(c(O)c1C2=O)C[C@@](O)(C(=O)CO)C[C@@H]3O[C@H]1C[C@H](N)[C@H](O)[C@H](C)O1` [Doxorubicin], the EFFECT (TNFSF10; [2]) was “Beneficial”.

For `CN(Cc1cnc2nc(N)nc(N)c2n1)c1ccc(C(=O)N[C@@H](CCC(=O)O)C(=O)O)cc1` [methotrexate, Methotrexate, reference compound], the EFFECT (CXCL1; [3]) was “Detrimental; also recorded: Beneficial”, the EFFECT (IFNG; [1]) was “Detrimental” and the EFFECT (TNFSF10; [2]) was “Beneficial”. For the same molecule, the EFFECT (CCL11) was “Beneficial”.

For `C=CCc1ccc(O)c(OC)c1` [Eugenol], the EFFECT (CXCL1; [3]) was “Beneficial”.

With `NCCc1c[nH]cn1` [Histamine, reference compound] the EFFECT (IFNG) was “Detrimental”.

With `Nc1ncn([C@H]2C[C@H](O)[C@@H](CO)O2)c(=O)n1` [Decitabine, 5-aza-2′-deoxycytidine, reference compound] the EFFECT (TNFSF10; [2]) was “Beneficial”.

In the case of `CC(=O)CCCCn1c(=O)c2c(ncn2C)n(C)c1=O` [Pentoxifylline, reference compound], the EFFECT (TNFSF10; [2]) is reported as “Beneficial”.

With `CC#C[C@]1(O)CC[C@H]2[C@@H]3CCC4=CC(=O)CCC4=C3[C@@H](c3ccc(N(C)C)cc3)C[C@@]21C` [Mifepristone] the EFFECT (CXCL1; [3]) was “Detrimental”.

In the case of Arsenic trioxide, the EFFECT (MIG; [4]) is reported as “Beneficial” and the EFFECT (TNFSF10; [2]) is reported as “Detrimental; also recorded: Beneficial”.

For `Cn1c(=O)c2[nH]cnc2n(C)c1=O` [Theophylline], the EFFECT (IFNG) was “Detrimental”.

In the case of `[Ag]` [Silver], the EFFECT (TNFSF10; [2]) is reported as “Detrimental”.

With `[Gd]` [Gadolinium] the EFFECT (IFNG; [1]) was “Beneficial”.

For `COc1cc(CNC(=O)CCCC/C=C/C(C)C)ccc1O` [Capsaicin, reference compound], the EFFECT (TNFSF10; [2]) was “Beneficial”.

For `Oc1ccc(/C=C/c2cc(O)cc(O)c2)cc1` [Resveratrol, 3,5,4′-trihydroxy-trans-stilbene], the EFFECT (CXCL1; [3]) was “Detrimental”, the EFFECT (IFNG; [1]) was “Detrimental” and the EFFECT (CCL11) was “Beneficial”.

With `CC1=C(/C=C/C(C)=C/C=C/C(C)=C/C(=O)O)C(C)(C)CCC1` [Tretinoin, reference compound] the EFFECT (CXCL1; [3]) was “Detrimental”, the EFFECT (IFNG; [1]) was “Detrimental” and the EFFECT (TNFSF10; [2]) was “Beneficial”.

For `CCCCCc1cc(O)c2c(c1)OC(C)(C)[C@@H]1CCC(C)=C[C@@H]21` [Dronabinol, reference compound], the EFFECT (IFNG; [1]) was “Detrimental”.

For `CC(=O)N[C@@H](CS)C(=O)O` [Acetylcysteine, reference compound], the EFFECT (TNFSF10; [2]) was “Detrimental”.

For `N#Cc1ccc(C(c2ccc(C#N)cc2)n2cncn2)cc1` [Letrozole], the “reduction of estrogen levels” value (aromatase) is listed as 98%.

For `N.N.[Cl][Pt][Cl]` [Cisplatin], the EFFECT (TNFSF10; [2]) was “Beneficial”.

In the case of `[Se]` [Selenium], the EFFECT (CXCL1; [3]) is reported as “Beneficial”, the EFFECT (MIG; [4]) is reported as “Beneficial” and the EFFECT (TNFSF10; [2]) is reported as “Detrimental”.

In the case of `Oc1cccc2cccnc12` [Oxyquinoline], the EFFECT (TNFSF10) is reported as “Beneficial”.

With `CC(=O)[C@H]1CC[C@H]2[C@@H]3CCC4=CC(=O)CC[C@]4(C)[C@H]3CC[C@]12C` [Progesterone] the EFFECT (CXCL1; [3]) was “Detrimental”, the EFFECT (MIG; [4]) was “Detrimental” and the EFFECT (TNFSF10; [2]) was “Detrimental”.

For `O=O` [Oxygen], the EFFECT (IFNG) was “Beneficial” and the EFFECT (TNFSF10) was “Beneficial”.

In the case of `CC[C@]1(O)C[C@H]2CN(CCc3c([nH]c4ccccc34)[C@@](C(=O)OC)(c3cc4c(cc3OC)N(C=O)[C@H]3[C@@](O)(C(=O)OC)[C@H](OC(C)=O)[C@]5(CC)C=CCN6CC[C@]43[C@@H]65)C2)C1` [Vincristine], the EFFECT (MIG; [4]) is reported as “Detrimental”, the EFFECT (IFNG; [1]) is reported as “Beneficial” and the EFFECT (TNFSF10; [2]) is reported as “Beneficial”.

For `Nc1ccn([C@@H]2O[C@H](CO)[C@@H](O)[C@@H]2O)c(=O)n1` [Cytarabine], the EFFECT (TNFSF10; [2]) was “Beneficial”.

In the case of `Nc1ccn([C@@H]2O[C@H](CO)[C@@H](O)C2(F)F)c(=O)n1` [Gemcitabine], the EFFECT (CXCL1; [3]) is reported as “Beneficial”.

In the case of `O.O.O.O.O.O.O.O.O.O=C([O-])[C@@H]1[O][Sb]2([O-])([O][Sb]34([OH])[O][C@H]([C@H](O)CO)[C@H]([O]3)[C@H](C(=O)[O-])[O]4)[O][C@H]([C@H](O)CO)[C@@H]1[O]2.[Na+].[Na+].[Na+]` [Sodium stibogluconate], the EFFECT (IFNG; [1]) is reported as “Detrimental”.

With `CN1C(C(=O)Nc2ccccn2)=C(O)c2ccccc2S1(=O)=O` [Piroxicam] the EFFECT (CXCL1; [3]) was “Detrimental”.

For `CC1=C(/C=C/C(C)=C/C=C/C(C)=C/C=C/C=C(C)/C=C/C=C(C)/C=C/C2=C(C)CCCC2(C)C)C(C)(C)CCC1` [Beta carotene], the EFFECT (MIG) was “Detrimental” and the EFFECT (TNFSF10) was “Beneficial”.

With `CN/C(=N/CCSCc1nc[nH]c1C)NC#N` [Cimetidine] the EFFECT (IFNG) was “Beneficial”.

With `O=C([O-])CC([S-])C(=O)[O-].[Au+].[Na+].[Na+]` (stereo not drawn) [Sodium aurothiomalate] the EFFECT (CXCL1; [3]) was “Detrimental”.

With `CC1=C(/C=C/C(C)=C\C=C\C(C)=C\C(=O)O)C(C)(C)CCC1` [Alitretinoin, reference compound] the EFFECT (CXCL1; [3]) was “Detrimental”, the EFFECT (IFNG; [1]) was “Detrimental” and the EFFECT (TNFSF10; [2]) was “Beneficial”.

With `C[C@]12C=CC(=O)C=C1CC[C@@H]1[C@@H]2[C@@H](O)C[C@@]2(C)[C@H]1CC[C@]2(O)C(=O)CO` [Prednisolone] the EFFECT (CXCL1) was “Detrimental”.

For `[Cr]` [Chromium], the EFFECT (TNFSF10; [2]) was “Detrimental”.

For `[Zn]` [Zinc], the EFFECT (IFNG; [1]) was “Beneficial” and the EFFECT (CCL11) was “Detrimental”.

For `O=S(=O)([O-])[O-].[Zn+2]` [Zinc sulfate], the EFFECT (IFNG) was “Beneficial”.

In the case of `[Fe]` [Iron], the EFFECT (TNFSF10; [2]) is reported as “Beneficial”.

With Vitamin E the EFFECT (TNFSF10; [2]) was “Detrimental”.

With `O=C(CCCCCCC(=O)Nc1ccccc1)NO` [Vorinostat, reference compound] the EFFECT (TNFSF10; [2]) was “Beneficial”.

With `O=c1[nH]cc(F)c(=O)[nH]1` [Fluorouracil, reference compound] the EFFECT (TNFSF10; [2]) was “Beneficial”.

In the case of `CC1=C(/C=C/C(C)=C/C=C/C(C)=C\C(=O)O)C(C)(C)CCC1` [Isotretinoin], the EFFECT (CXCL1; [3]) is reported as “Detrimental” and the EFFECT (TNFSF10; [2]) is reported as “Beneficial”.

For `CC(C)C[C@H](NC(=O)[C@H](Cc1ccccc1)NC(=O)c1cnccn1)B(O)O` [Bortezomib, reference compound], the EFFECT (CXCL1; [3]) was “Beneficial” and the EFFECT (TNFSF10; [2]) was “Detrimental”.

For `C=CC[C@@H]1/C=C(\C)C[C@H](C)C[C@H](OC)[C@H]2O[C@@](O)(C(=O)C(=O)N3CCCC[C@H]3C(=O)O[C@H](/C(C)=C/[C@@H]3CC[C@@H](O)[C@H](OC)C3)[C@H](C)[C@@H](O)CC1=O)[C@H](C)C[C@@H]2OC` [Tacrolimus], the EFFECT (CCL11) was “Beneficial”.

With `CC(=O)Nc1ccc(O)cc1` [Acetaminophen] the EFFECT (TNFSF10) was “Detrimental”.

B1: MIG: recombinant mouse MIG (R&D systems, catalog number 492-MM) (protein, UniProt Q07325 23-125, looked up)
C-X-C motif chemokine 9: TPVVRKGRCSCISTNQGTIHLQSLKDLKQFAPSPSCEKIEIIATLKNGVQTCLNPDSADVKELIKKWEKQVSQKKKQKNGKKHQKKKVLKVRKSQRSRQKKTT
In the case of B1, the “effect on vasorelaxation to Acetylcholine” value (Mouse thoracic aortas) is reported as “impairs vascular function”.
